Measured values: patent publication US8058437B2, “(Pyrroloquinoxalinyl) pyrazinecarbohydrazide-oxalic acid co-crystal for treatment of cancer and other diseases” (Novelix Pharmaceuticals, Inc., priority 2008, dated 2011)
Where two headings read alike, the source gives them in different places.

Test: Pharmacokinetic experiments in rats (IV, oral suspension, oral solution)
Type: in vivo
Settings: male, rat, plasma; for bioavailability: adjusted for dose, read-out: Bioavailability
Experimental: The oral suspension formulation was prepared by suspending the test article in 5% PEG-200/95% of a 0.5% solution of methylcellulose. The concentration of the test article was such that a dosing volume of 10 mL/kg delivered the intended dose level. The oral solution formulations of NVX-144 and NVX-412 were prepared by dissolving the test article in 10% by volume dimethyl acetamide, followed by 60% by volume PEG-400, and then adding slowly a solution of 30% Captisol® in 50 mM lactic acid to provide the remaining 30% of volume. The concentration of the test article was such that a dosing volume of 10 mL/kg delivered the intended dose level. The IV formulation of NVX-412 was prepared by dissolving the test article in 10% by volume dimethyl acetamide, followed by 10% by volume PEG-400, and then adding slowly a solution of 10% Captisol® in 50 mM lactic acid to provide the remaining 80% of volume. The concentration of the test articles was such that a dosing volume of 2.5 mL/kg delivered the intended dose level. The doses administered were based on the body weight of each animal taken shortly before dosing. The formulations were used immediately after preparation.
A total of 15 rats were assigned to the study. Five groups of three male rats each comprised the study. Each group was treated once by oral gavage or intravenous injection via the tail vein as specified in Table 3 below.
The animals were fasted overnight prior to dosing and the feed returned approximately 2 hours post-dosing. The dose for each animal was based on the most recent body weight. Oral doses were administered by gavage. Animals received 10 mL/kg per single oral dose. Intravenous doses were administered by tail vein injection. The dose for each animal was based on the most recent body weight. Animals were dosed at 2.5 mL/kg per single intravenous dose.
Blood was collected from the animals in Groups 1 through 5 for pharmacokinetic analysis. Approximately 0.3 mL of blood was collected in potassium EDTA tubes via the orbital plexus at four time points (30 minutes, 1 hour, 4 hours, and 8 hours post-dose) from each rat treated by the oral route, and the blood samples were processed to prepare plasma. Blood was collected at four time points (5 minutes, 30 minutes, 1 hour, and 2 hours post-dose) from each rat treated by the intravenous route, and the blood samples were processed to prepare plasma. Animals were terminated (without necropsy) following their final sample collection.
The whole blood samples were centrifuged (˜1500×g) for a minimum of 10 minutes in a refrigerated centrifuge (set at ˜5° C.). Plasma was prepared and transferred within 30 minutes of blood collection/centrifugation to appropriately labeled tubes. The tubes were then frozen and stored in the dark at ≦−70° C. until analysis. The plasma samples were analyzed by LC-MS/MS to determine the plasma concentrations of NVX-144 and NVX-412. Pharmacokinetic analysis of the plasma concentration data was conducted using non-compartmental analysis with WinNonlin Version 4.1.

[1] = iv, 5 mg/kg, IV 5 mg/kg, Mean of 3
[2] = iv, 5 mg/kg, IV 5 mg/kg, individual animals
[3] = oral, 20 mg/kg, Group 5, PO-Solution 20 mg/kg, Mean
[4] = po, 20 mg/kg, Group 3, PO-Suspension 20 mg/kg, individual animals
[5] = po, 20 mg/kg, Group 5, PO-Solution 20 mg/kg, Mean N=3

concentration at 0.083 h [1]: 1840 ng/mL
concentration at 0.083 h [2]: 1810 ng/mL
concentration at 0.5 h (iv, 5 mg/kg, IV 5 mg/kg, 0.5 h, Mean of 3): 477 ng/mL
concentration at 0.5 h (iv, 5 mg/kg, IV 5 mg/kg, 0.5 h, individual animals): 488 ng/mL
concentration at 1 h (iv, 5 mg/kg, IV 5 mg/kg, 1 h, Mean of 3): 273 ng/mL
concentration at 1 h (iv, 5 mg/kg, IV 5 mg/kg, 1 h, individual animals): 288 ng/mL
concentration at 2 h [1]: 165 ng/mL
concentration at 2 h [2]: 167 ng/mL
AUC [1]: 1070 ng·h/mL
AUC(0-inf) [1]: 1310 ng·h/mL
clearance [1]: 63.4 mL/min/kg
Cmax (iv, 5 mg/kg, IV 5 mg/kg, Mean of 3, read-out: Cmax): 1840 ng/mL
half-life (iv, 5 mg/kg, IV 5 mg/kg, Mean of 3, read-out: T ½ (converted)): 1 h
Tmax (iv, 5 mg/kg, IV 5 mg/kg, Mean of 3, read-out: Tmax): 0.083 h
Vd (iv, 5 mg/kg, IV 5 mg/kg, Mean of 3, read-out: Vss): 3.98 L/kg
AUC [2]: 1070 ng·h/mL
AUC(0-inf) [2]: 1320 ng·h/mL
clearance [2]: 63.3 mL/min/kg
Cmax (iv, 5 mg/kg, IV 5 mg/kg, individual animals, read-out: Cmax): 1810 ng/mL
half-life (iv, 5 mg/kg, IV 5 mg/kg, individual animals, read-out: T ½ (converted)): 1.01 h
Tmax (iv, 5 mg/kg, IV 5 mg/kg, individual animals, read-out: Tmax): 0.08 h
Vd (iv, 5 mg/kg, IV 5 mg/kg, individual animals, read-out: Vss): 3.96 L/kg
half-life (iv, 5 mg/kg, administered intravenously, range over animals, read-out: terminal plasma half-life): 0.93 to 1.15 h
concentration at 0.5 h (oral, 20 mg/kg, Group 3, PO-Suspension 20 mg/kg, 0.5 hr, Mean): 487 ng/mL
concentration at 0.5 h (oral, 20 mg/kg, Group 3, PO-Suspension 20 mg/kg, 0.5 hr, individual animals): 499 ng/mL
concentration at 1 h (oral, 20 mg/kg, Group 3, PO-Suspension 20 mg/kg, 1 hr, Mean): 525 ng/mL
concentration at 1 h (oral, 20 mg/kg, Group 3, PO-Suspension 20 mg/kg, 1 hr, individual animals): 525 ng/mL
concentration at 4 h (oral, 20 mg/kg, Group 3, PO-Suspension 20 mg/kg, Mean): 257 ng/mL
concentration at 4 h (oral, 20 mg/kg, Group 3, PO-Suspension 20 mg/kg, individual animals): 341 ng/mL
concentration at 8 h (oral, 20 mg/kg, Group 3, PO-Suspension 20 mg/kg, Mean, only 2 replicates available): 9.27 ng/mL
concentration at 0.5 h (oral, 20 mg/kg, Group 5, PO-Solution 20 mg/kg, 0.5 hr, Mean): 626 ng/mL
concentration at 0.5 h (oral, 20 mg/kg, Group 5, PO-Solution 20 mg/kg, 0.5 hr, individual animals): 732 ng/mL
concentration at 1 h (oral, 20 mg/kg, Group 5, PO-Solution 20 mg/kg, 1 hr, Mean): 601 ng/mL
concentration at 1 h (oral, 20 mg/kg, Group 5, PO-Solution 20 mg/kg, 1 hr, individual animals): 628 ng/mL
concentration at 4 h [3]: 243 ng/mL
concentration at 4 h (oral, 20 mg/kg, Group 5, PO-Solution 20 mg/kg, individual animals): 259 ng/mL
concentration at 8 h [3]: 16.2 ng/mL
AUC(0-inf) (po, 20 mg/kg, Group 3, PO-Suspension 20 mg/kg, Mean N=2): 2310 ng·h/mL
half-life (po, 20 mg/kg, Group 3, PO-Suspension 20 mg/kg, Mean N=2, read-out: T ½ (converted)): 1.2 h
bioavailability (po, 20 mg/kg, Group 3, PO-Suspension 20 mg/kg, Mean N=2, versus mean IV AUCINF): 43.9%
AUC (po, 20 mg/kg, Group 3, PO-Suspension 20 mg/kg, Mean N=3): 2070 ng·h/mL
Cmax (po, 20 mg/kg, Group 3, PO-Suspension 20 mg/kg, Mean N=3, read-out: Cmax): 525 ng/mL
Tmax (po, 20 mg/kg, Group 3, PO-Suspension 20 mg/kg, Mean N=3, read-out: Tmax): 1 h
AUC [4]: 2390 ng·h/mL
AUC(0-inf) [4]: 2410 ng·h/mL
Cmax (po, 20 mg/kg, Group 3, PO-Suspension 20 mg/kg, individual animals, read-out: Cmax): 525 ng/mL
half-life (po, 20 mg/kg, Group 3, PO-Suspension 20 mg/kg, individual animals, read-out: T ½ (converted)): 1.28 h
Tmax (po, 20 mg/kg, Group 3, PO-Suspension 20 mg/kg, individual animals, read-out: Tmax): 1 h
bioavailability (po, 20 mg/kg, Group 3, PO-Suspension 20 mg/kg, individual animals, versus mean IV AUCINF): 45.9%
AUC [5]: 2250 ng·h/mL
AUC(0-inf) [5]: 2290 ng·h/mL
Cmax (po, 20 mg/kg, Group 5, PO-Solution 20 mg/kg, Mean N=3, read-out: Cmax): 643 ng/mL
half-life (po, 20 mg/kg, Group 5, PO-Solution 20 mg/kg, Mean N=3, read-out: T ½ (converted)): 1.4 h
Tmax (po, 20 mg/kg, Group 5, PO-Solution 20 mg/kg, Mean N=3, read-out: Tmax): 0.67 h
bioavailability (po, 20 mg/kg, Group 5, PO-Solution 20 mg/kg, Mean N=3, versus mean IV AUCINF): 43.5%
Compound: O=C(NNc1nc2cc(F)ccc2n2cccc12)c1cnccn1.O=C(O)C(=O)O [NVX-412, N′-(7-fluoropyrrolo[1,2a]quinoxalin-4-yl)pyrazine-2-carbohydrazide oxalic acid co-crystal]
